Data set [1] has as its system spontaneously hypertensive rats. Description: mean arterial blood pressure in spontaneously hypertensive rats, indwelling cannulae in the tail arteries. The data set is classed as in vivo. Particulars: 50 mg/kg intraperitoneally, compared to vehicle-treated controls. The method, then:
Further, spontaneously hypertensive rats were treated with 1-(2-pyrrylmethyl)-1,3-dihydro-2H-imidazole-2-thione at a dose of 50 mg/kg intraperitoneally, and mean arterial blood pressure was monitored for 250 minutes using indwelling cannulae in the tail arteries. […] The maximal blood pressure reduction was approximately 35-40 mmHg.

The conditions of data set [2]: Teresawa et al., Japan. Cir. J. 35, 339 (1971); cited from earlier work.
The target in another data set is T1, DBH (Homo sapiens, UniProt P09172).
T1 sequence (P09172 1-617): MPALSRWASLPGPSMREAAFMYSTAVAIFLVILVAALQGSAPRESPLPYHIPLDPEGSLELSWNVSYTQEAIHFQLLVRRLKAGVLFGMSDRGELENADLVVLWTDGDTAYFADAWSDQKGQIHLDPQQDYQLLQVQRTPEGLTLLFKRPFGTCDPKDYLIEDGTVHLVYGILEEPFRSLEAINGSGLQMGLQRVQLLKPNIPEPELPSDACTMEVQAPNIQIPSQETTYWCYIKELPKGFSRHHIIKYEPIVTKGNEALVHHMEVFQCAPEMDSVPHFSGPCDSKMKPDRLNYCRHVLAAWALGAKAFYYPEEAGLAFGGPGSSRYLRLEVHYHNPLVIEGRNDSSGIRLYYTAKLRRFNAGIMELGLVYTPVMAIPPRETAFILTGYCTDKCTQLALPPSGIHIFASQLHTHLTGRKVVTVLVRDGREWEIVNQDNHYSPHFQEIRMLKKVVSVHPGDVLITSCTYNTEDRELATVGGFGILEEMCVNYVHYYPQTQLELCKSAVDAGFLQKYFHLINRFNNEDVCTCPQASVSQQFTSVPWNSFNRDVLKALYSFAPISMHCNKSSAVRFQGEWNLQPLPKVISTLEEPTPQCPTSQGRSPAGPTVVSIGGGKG
The conditions noted are these: reported by Runti et al.; cited from earlier work.

These results are taken from patent EP0371732A1, “Dopamine-beta-hydroxylase inhibitors” (SMITHKLINE BEECHAM CORPORATION, priority 1988, dated 1990).

In the case of `S=c1[nH]ccn1Cc1ccc[nH]1` [1-(2-Pyrrylmethyl)-1,3-dihydro-2H-imidazole-2-thione], the “time to significant blood pressure reductions following treatment” value in data set [1] is at most 30 min. Further, the “maximal blood pressure reduction” value in data set [1] (monitored for 250 minutes, lowest blood pressures when monitoring was discontinued) is listed as 35-40 mmHg.

Take `CCCCc1ccc(C(=O)O)nc1` [Fusaric acid]: the toxic effect entry in data set [2] was “hepatotoxic”.

With phenylpicolinic acid, the “inhibitory activity relative to fusaric acid” value at DBH was “twice the inhibitory activity of fusaric acid”.
